Test results taken from patent US5486511A, “4-amino-17β-(cyclopropyloxy)androst-4-en-3-one, 4-amino-17β-(cyclopropylamino)androst-4-en-3-one and related compounds as C17-20 lyase and 5α-reductase” (Merrell Dow Pharmaceuticals Inc., priority 1994, dated 1996).

Legend:
[1] = system: canine lyase; assay: Inhibition of canine steroid C17,20 lyase (testicular microsomes); format: biochemical, dog; conditions: substrate, dog lyase
Protocol: (§1) The activity of the present compounds as inhibitors of steroid C17,20 lyase was established using microsomal preparations of the steroid C17,20 lyase enzyme from human or laboratory animal testes. Human testes used for this purpose were obtained from therapeutic orchiectomies. Specifically, microsomes were isolated from human, cynomolgus monkey, dog, rat or athymic nude mouse testicular tissue. The compound to be tested was dissolved in dimethyl sulfoxide and diluted in 0.05M potassium phosphate buffer to give the desired concentrations of the test compound. The potassium phosphate buffer was at pH 7.4 for the human, monkey and dog lyase assays and at pH 7.2 for the rat and athymic nude mouse lyase assays. Assays also contained 1 mM NADPH, 5 mM glucose-6-phosphate, 1 IU/ml glucose-6-phosphate dehydrogenase (an NADPH regenerating system) and microsomal protein in a total volume of 0.2 mL. Control assays contained all components including dimethyl sulfoxide, but with no test compound. All assays were performed in duplicate. […] Radioactivity in the steroid peaks was measured by a Radiomatic Model HS Flo-One detector.
(§2) The enzyme activity for each incubate was calculated from the percent conversion of substrate to products, and the results were expressed as percent inhibition of control. […] The Ki and kinact for time dependent inhibitors were determined by graphical analysis of Kitz-Wilson plots. […]

[2] = system: rat lyase; assay: Inhibition of rat steroid C17,20 lyase (testicular microsomes); format: biochemical; conditions: substrate, rat enzyme
Protocol: as §1, §2

[3] = system: nude mouse lyase; assay: Inhibition of athymic nude mouse steroid C17,20 lyase (testicular microsomes); format: biochemical; conditions: substrate, athymic nude mouse enzyme
Protocol: as §1, §2

[4] = substrate: CC(=O)[C@@]1(O)CC[C@H]2[C@@H]3CC=C4C[C@@H](O)CC[C@]4(C)[C@H]3CC[C@@]21C; assay: Inhibition of cynomolgus monkey steroid C17,20 lyase (testicular microsomes), time dependent, Kitz-Wilson; format: biochemical; conditions: other: substrate, 34.0 °C
Protocol: as §1, §2

[5] = substrate: CC(=O)[C@@]1(O)CC[C@H]2[C@@H]3CC=C4C[C@@H](O)CC[C@]4(C)[C@H]3CC[C@@]21C; assay: Inhibition of human steroid C17,20 lyase (testicular microsomes); format: biochemical; conditions: other: substrate, 34.0 °C
Protocol: as §1, §2

Question: For CC(=O)[C@@]1(O)CC[C@H]2[C@@H]3CC=C4C[C@@H](O)CC[C@]4(C)[C@H]3CC[C@@]21C [17α-hydroxypregnenolone, reference compound], which Km [1] is on record?
Answer: The Km was 0.06 µM.

Question: How did the Km [2] turn out when CC(=O)[C@@]1(O)CC[C@H]2[C@@H]3CCC4=CC(=O)CC[C@]4(C)[C@H]3CC[C@@]21C [17α-hydroxyprogesterone, reference compound] was run?
Answer: The Km was 0.1 µM.

Question: What about the Km [3] of the same molecule?
Answer: Its Km is 0.03 µM.

B1: cynomolgus monkey C17,20 lyase (Macaca fascicularis) (protein)
chain: MWELVALLLLTLAYLFWPKRRCPGAKYPKSLLSLPLVGSLPFLPRHGHMHNNFFKLQKKYGPIYSVRMGTKTTVIVGHHQLAKEVLIKKGKDFSGRPQVTTLDILSNNRKGIAFADYGAHWQLHRRLAMATFALFKDGDQKLEKIICQEISTLCDMLATHNGQTIDISFPVFVAITNVISLICFNISYKNGDPELKIVHNYNEGIIDSLGKESLVDLFPWLKVFPNKTLEKLKRHVKTRNDLLTKIFENYKEKFHSDSITNMLDVLMQAKMNSDNGNAGPDQDSELLSDNHILTTIGDIFGAGVETTTSVVKWIVAFLLHNPQVKKKLYEEIDQNVGFSRTPTISDRNRLLLLEATIREVLRIRPVAPMLIPHKANVDSSIGEFAVDKGTHVIINLWALHHNEKEWHQPDQFMPERFLNPAGTQLISPSLSYLPFGAGPRSCIGEILARQELFLIMAWLLQRFDLEVPDDGQLPSLEGNPKVVFLIDSFKVKIKVRQAWREAQAEGST
notes: microsomes were isolated from human, cynomolgus monkey, dog, rat or athymic nude mouse testicular tissue; from tissue; host or cells: cynomolgus monkey testis microsomes
Question: How did the Km [4] turn out when B1 was run?
Answer: The Km was 0.11 µM.

B2: human lyase (Homo sapiens) (protein)
chain: MWELVALLLLTLAYLFWPKRRCPGAKYPKSLLSLPLVGSLPFLPRHGHMHNNFFKLQKKYGPIYSVRMGTKTTVIVGHHQLAKEVLIKKGKDFSGRPQMATLDIASNNRKGIAFADSGAHWQLHRRLAMATFALFKDGDQKLEKIICQEISTLCDMLATHNGQSIDISFPVFVAVTNVISLICFNTSYKNGDPELNVIQNYNEGIIDNLSKDSLVDLVPWLKIFPNKTLEKLKSHVKIRNDLLNKILENYKEKFRSDSITNMLDTLMQAKMNSDNGNAGPDQDSELLSDNHILTTIGDIFGAGVETTTSVVKWTLAFLLHNPQVKKKLYEEIDQNVGFSRTPTISDRNRLLLLEATIREVLRLRPVAPMLIPHKANVDSSIGEFAVDKGTEVIINLWALHHNEKEWHQPDQFMPERFLNPAGTQLISPSVSYLPFGAGPRSCIGEILARQELFLIMAWLLQRFDLEVPDDGQLPSLEGIPKVVFLIDSFKVKIKVRQAWREAQAEGST
notes: microsomes were isolated from human, cynomolgus monkey, dog, rat or athymic nude mouse testicular tissue; from tissue; host or cells: human testis microsomes (therapeutic orchiectomies)
Question: How did the Km [5] turn out when B2 was run?
Answer: Its Km is 0.30 µM.
